Data from US11530216B2, “Deuterated colony stimulating factor-1 receptor (CSF-1R) inhibitors” (Genzyme Corporation, priority 2020, dated 2022).
Where two headings read alike, the source gives them in different places.

Key:
[1] = Human hepatocyte intrinsic clearance; assay type: in vitro ADME; details: for CLint scaled at 1 μM / hepatocyte CLint at 1 μM: human, hepatocytes
Description: (§1) Incubations were performed in 0.5 million hepatocytes cells/mL at 1 μM concentration of test compound in duplicate with rat, human, dog, monkey, or mouse hepatocytes, and the concentration-time course of test compound depletion was determined after withdrawing samples from the incubation at assay time points followed by liquid chromatography with tandem mass spectrometry analysis. An organic solvent was used to terminate incubations.
(§2) These available known AO substrates along with the test compounds were analyzed using three in vitro systems (pooled human liver cytosol, liver S-9 fractions and human hepatocytes isolated from livers perfused with HTK media). Scaled unbound intrinsic clearances were calculated for the test compounds/new chemical entities and were compared to the in vivo unbound intrinsic clearances of the known AO substrates.

[2] = Human liver cytosol intrinsic clearance; assay type: in vitro ADME; details: for CLint scaled at 1 μM / microsomal CLint at 1 μM: human, cytosol
Description: as §1, with “1 mg/mL human liver cytosol with high aldehyde oxidase (AO)/xanthine oxidase (XO) activity or 2.5 mg/mL human liver S-9 fraction with high AO/XO activity” for “0.5 million hepatocytes cells/mL”, “duplicate,” for “duplicate with rat, human, dog, monkey, or mouse hepatocytes,”
as §2

[3] = Human liver S-9 intrinsic clearance; assay type: in vitro ADME; details: for CLint scaled at 1 μM / microsomal CLint at 1 μM: human; for CLint scaled at 1 μM: s9; for Human Liver S-9 Intrinsic Clearance _1 / Human Liver S-9 Intrinsic Clearance _2: 2.5 mg/mL S-9, 1 μM
Description: as §1, with “1 mg/mL human liver cytosol with high aldehyde oxidase (AO)/xanthine oxidase (XO) activity or 2.5 mg/mL human liver S-9 fraction with high AO/XO activity” for “0.5 million hepatocytes cells/mL”, “duplicate,” for “duplicate with rat, human, dog, monkey, or mouse hepatocytes,”
as §2

[4] = known AO substrates, human, literature; cited from earlier work
[5] = tested on: MCP-1 production in primary murine microglial cells; assay: MCP-1 ELISA, primary mouse microglia after CSF-1 stimulation; assay type: cell-based; details: primary murine microglia, 100 ng/mL CSF-1 24 hours
Description: Primary mouse microglia were suspended at a concentration of 5×10^5 cells/mL and 100 μL of this cell suspension was added to the inner 60 wells of three 96-well plates. Microglia cells were allowed to rest overnight at 37° C., 5% CO2. […] Cells were then stimulated with 100 ng/mL recombinant mouse CSF-1 for 24 hours. After stimulation, the culture supernatant was removed from each well and aliquoted into two different 96-well plates for subsequent ELISA assays. Plates were fixed with 4% PFA for future immunocytochemistry analysis.

primary murine microglia = assay: Immunostaining of primary microglia (Iba1+ area, DAPI+ nuclei) after CSF-1 stimulation; assay type: cell-based, mouse; details: for IC50: primary murine microglia, CSF-1 stimulation
Description: Primary mouse microglia were suspended at a concentration of 5×10^5 cells/mL and 100 μL of this cell suspension was added to the inner 60 wells of three 96-well plates. Microglia cells were allowed to rest overnight at 37° C., 5% CO2. […] Cells were then stimulated with 100 ng/mL recombinant mouse CSF-1 for 24 hours. After stimulation, the culture supernatant was removed from each well and aliquoted into two different 96-well plates for subsequent ELISA assays. Plates were fixed with 4% PFA for future immunocytochemistry analysis. Following the stimulation, cells were fixed with 4% PFA for 20 minutes at room temperature. Cells were then rinsed in PBS, washed 3×5 minutes in 0.2% PBT (0.2% Triton X-100 in PBS) and blocked with 10% donkey serum/0.2% PBT for 1 hour at room temperature. […] After staining, plates were imaged on the IN Cell Analyzer 2200 with 9 fields of view acquired per well. […] A one-way ANOVA was used to determine the statistical significance of differences between samples. […] Following a microglial stimulation, immunocytochemistry was completed with Iba1, Ki67, and DAPI to determine microglial morphology, proliferative state, and number. InCell imaging microsope and analysis software was used to quantify Iba1^+ area, and the number of DAPI^+ nuclei within the cultures.

[6] = Human Liver Cytosol Intrinsic Clearance _1
[7] = Human Liver Cytosol Intrinsic Clearance _2
[8] = 1 mg/mL cytosol, 1 μM, replicate 1
[9] = 1 mg/mL cytosol, 1 μM, replicate 2
[10] = raw data, AO calibration set, read-out: Human Hepatocytes Intrinsic Clearance
[11] = scaled data, read-out: Human Hepatocytes in vitro scaled Intrinsic Clearance
[12] = 1 mg/mL cytosol, 1 μM, replicate 1, read-out: Human Liver Cytosol Intrinsic Clearance _1
[13] = 1 mg/mL cytosol, 1 μM, replicate 2, read-out: Human Liver Cytosol Intrinsic Clearance _2
[14] = scaled data, read-out: Human Liver Cytosol in vitro scaled Intrinsic Clearance
[15] = s9, 2.5 mg/mL S-9, 1 μM, replicate 1, read-out: Human Liver S-9 Intrinsic Clearance _1
[16] = s9, 2.5 mg/mL S-9, 1 μM, replicate 2, read-out: Human Liver S-9 Intrinsic Clearance _2
[17] = scaled data, read-out: Human Liver S-9 in vitro scaled Intrinsic Clearance

Row | Structure (SMILES) | CLint scaled at 1 μM [1] [mL/min/kg] | hepatocyte CLint at 1 μM [1] [µL/min/1e6 cells] | CLint scaled at 1 μM [2] [mL/min/kg] | microsomal CLint at 1 μM [2, 6] [µL/min/mg] | microsomal CLint at 1 μM [2, 7] [µL/min/mg] | Human Hepatocytes Intrinsic Clearance ([1]; raw data, AO calibration set) [μL/min/10^6 cells] | Human Hepatocytes in vitro scaled Intrinsic Clearance ([1]; scaled data) [mL/min/kg] | Human Liver Cytosol Intrinsic Clearance _1 [2, 8] [μL/min/mg protein] | Human Liver Cytosol Intrinsic Clearance _2 [2, 9] [μL/min/mg protein] | Human Liver Cytosol in vitro scaled Intrinsic Clearance ([2]; scaled data) [mL/min/kg] | Human Liver S-9 Intrinsic Clearance _1 ([3]; replicate 1) [μL/min/mg protein] | Human Liver S-9 Intrinsic Clearance _2 ([3]; replicate 2) [μL/min/mg protein] | Human Liver S-9 in vitro scaled Intrinsic Clearance ([3]; scaled data) [mL/min/kg] | Estimated Free in vivo Intrinsic Clearance (Ref) [4] | other results
1 | [2H]c1ccc2ncn(Cc3cc(OC)c4c(c3)O[C@@H](C)[C@H](c3ccc(OC)nc3)O4)c2n1 (racemic) [Compound 1, (+/−)-3-(((trans)-8-methoxy-2-(6-methoxypyridin-3-yl)-3-methyl-2,3-dihydrobenzo[b][1,4]dioxin-6-yl)methyl)-3H-imidazo[4,5-b]pyridine-5-d] | 26.2 | 10.3 | 6.9 | 3.4 | 3.3 |  |  |  |  |  |  |  |  |  | 
2 | [2H]c1ccc2nc([2H])n(Cc3cc(OC)c4c(c3)O[C@@H](C)[C@H](c3ccc(OC)nc3)O4)c2n1 (racemic) [Compound 2, (+/−)-3-(((trans)-8-methoxy-2-(6-methoxypyridin-3-yl)-3-methyl-2,3-dihydrobenzo[b][1,4]dioxin-6-yl)methyl)-3H-imidazo[4,5-b]pyridine-2,5-d2] | 16.2 | 6.36 | 4.3 | 1.5 | 1.7 |  |  |  |  |  |  |  |  |  | 
3 | [2H]c1nc2cccnc2n1C([2H])([2H])c1cc(OC)c2c(c1)O[C@@H](C)[C@H](c1ccc(OC)nc1)O2 (racemic) [Compound 4, (+/−)-3-(((trans)-8-methoxy-2-(6-methoxypyridin-3-yl)-3-methyl-2,3-dihydrobenzo[b][1,4]dioxin-6-yl)methyl-d2)-3H-imidazo[4,5-b]pyridine-2-d] | 19 | 7.45 | 3.4 | 1.2 | 2.1 |  |  |  |  |  |  |  |  |  | 
4 | [2H]c1nc2cccnc2n1Cc1cc(OC)c2c(c1)O[C@H](C)[C@@H](c1ccc(OC)nc1)O2 [Compound 5, 3-(((2R,3R)-8-methoxy-2-(6-methoxypyridin-3-yl)-3-methyl-2,3-dihydrobenzo[b][1,4]dioxin-6-yl)methyl)-3H-imidazo[4,5-b]pyridine-2-d] | 19.7 | 7.74 | 2.2 | 0.7 | 1.4 |  |  |  |  |  |  |  |  |  | CLint scaled at 1 μM [3]: 3.6 mL/min/kg; microsomal CLint at 1 μM ([3]; s9, Human Liver S-9 Intrinsic Clearance _1): < 1.1 µL/min/mg; microsomal CLint at 1 μM ([3]; s9, Human Liver S-9 Intrinsic Clearance _2): < 1.1 µL/min/mg
5 | CN(C)CCNC(=O)c1cccc2cc3ccccc3nc12 [DACA] |  |  |  |  |  | 49.1 | 125 | 46.2 | 46.8 | 96.5 | 19.0 | 17.7 | 56.5 | 3600 | 
6 | Nc1nc(OCc2ccccc2)c2nc[nH]c2n1 [O6-benzylguanine] |  |  |  |  |  | 13.6 | 34.6 | 5.6 | 4.9 | 10.7 | 6.66 | 5.97 | 19.5 | 360 | 
7 | CC[C@H]1OC(=O)[C@H](C)C(=O)[C@H](C)[C@@H](O[C@@H]2O[C@H](C)C[C@H](N(C)C)[C@H]2O)[C@](C)(OC)C[C@@H](C)C(=O)[C@H](C)[C@H]2N(C3CN([C@H](C)c4ccnc5ncccc45)C3)C(=O)O[C@]12C [PF-945863] |  |  |  |  |  | 10.7 | 27.2 | 8.2 | 6.9 | 15.4 | 6.78 | 6.22 | 20.1 | 170 | 
8 | OCCn1cc(-c2cnc3nnn(Cc4ccc5ncccc5c4)c3n2)cn1 [PF-4217903] |  |  |  |  |  |  |  |  |  |  |  |  |  | 46 | hepatocyte CLint at 1 μM [1, 10]: 4.08 µL/min/1e6 cells; CLint scaled at 1 μM [1, 11]: 10.4 mL/min/kg; microsomal CLint at 1 μM [2, 12]: < 0.7 µL/min/mg; microsomal CLint at 1 μM [2, 13]: < 0.7 µL/min/mg; CLint scaled at 1 μM [2, 14]: < 1.5 mL/min/kg; microsomal CLint at 1 μM [3, 15]: < 1.1 µL/min/mg; microsomal CLint at 1 μM [3, 16]: < 1.1 µL/min/mg; CLint scaled at 1 μM [3, 17]: < 3.4 mL/min/kg
9 | FC(F)(F)c1ccc(CNc2ccc(Cc3c[nH]c4ncc(Cl)cc34)cn2)cn1 [PLX3397, pexidartinib] |  |  |  |  |  |  |  |  |  |  |  |  |  |  | IC50 ([5]; read-out: IC50, MCP-1 production): 17.4 nM; MCP-1 production ([5]; 3.125-400 nM): significantly reduced MCP-1 production in a concentration dependent manner; Iba1+ area (primary murine microglia; CSF-1 stimulation increases Iba1+ area): significantly abrogated this effect in a concentration dependent manner; number of cells (DAPI+ cells) (primary murine microglia; CSF-1 stimulation increases cell number): reduce this number in a concentration dependent manner; IC50 (primary murine microglia; read-out: IC50 for DAPI (DAPI+ cell number)): 68.2 nM; IC50 (primary murine microglia; read-out: IC50 for Iba1 (Iba1+ area)): 50.4 nM
10 | CCNC(=O)OC1CCN(c2nncc3cc(OC)c(OC)cc23)CC1 [carbazeran] |  |  |  |  |  |  |  |  |  |  |  |  |  | 13000 | 
11 | CN(Cc1cnc2nc(N)nc(N)c2n1)c1ccc(C(=O)N[C@@H](CCC(=O)O)C(=O)O)cc1 [methotrexate] |  |  |  |  |  | <2.7 | <6.9 | <0.7 | <0.7 | <1.5 | <1.1 | <1.1 | <3.4 | 0.44 | 
12 | CCN(C(C)=O)c1cccc(-c2ccnc3c(C#N)cnn23)c1 [zaleplon] |  |  |  |  |  |  |  |  |  |  |  |  |  | 65 | hepatocyte CLint at 1 μM [1, 10]: 7.53 µL/min/1e6 cells; CLint scaled at 1 μM [1, 11]: 19.2 mL/min/kg; microsomal CLint at 1 μM [2, 12]: 3.1 µL/min/mg; microsomal CLint at 1 μM [2, 13]: 3.4 µL/min/mg; CLint scaled at 1 μM [2, 14]: 6 mL/min/kg; microsomal CLint at 1 μM [3, 15]: 2.11 µL/min/mg; microsomal CLint at 1 μM [3, 16]: 3.32 µL/min/mg; CLint scaled at 1 μM [3, 17]: 7.1 mL/min/kg
13 | N=C(N)NC(=O)c1cnn(-c2cccc3ncccc23)c1C1CC1 [zoniporide] | 33.8 | 13.3 | 12.4 |  |  |  |  |  |  |  |  |  |  | 180 | CLint scaled at 1 μM [3]: 18.6 mL/min/kg
